The series is described as follows: In vitro glycosyl transferase performance, purified enzymes, % conversion of cannabinoids to cannabinoid glycosides. It counts as biochemical. The note with it: for Conversion % (CBDV to the glycoside): acceptor CBDV; for Conversion % (CBD to the glycoside): acceptor CBD; for Conversion % (CBG to the glycoside): acceptor CBG; for Conversion % (THC-glycoside produced): substrate THC; for Conversion % (11-nor-9-carboxy-THC-glycoside produced): substrate 11-nor-9-carboxy-THC, enzyme PL-113(Tc90A_GA). How it is done: For in vitro studies of glycosyl transferase performance in glycosylating cannabinoids, purified Glycosyl transferases were prepared as follows:
5 mL of 2× concentrated LB medium+Ampicillin (50 μg/m L) was inoculated with E. coli XJb (DE3) strains expressing a glycosyl transferase of interest and incubated overnight at 30° C. with shaking. The following day, cell cultures were transferred into 500 mL of 2× concentrated LB medium+Ampicillin (50 μg/mL) and incubated overnight at 30° C. with shaking. The following day, the cell cultures were transferred to 1 L of 2× concentrated LB medium+Ampicillin (50 μg/mL)+3 mM arabinose+0.1 mM IPTG. Cells were incubated for 24 h at 20° C. with shaking. The following day, the cells were collected by centrifugation at 46500×g for 10 mins at 4° C. Cells were resuspended in 20 mL ice-cold GT buffer (50 mM Tris-HCl pH7.4+1 mM phenylmethanesulfonyl fluoride+1 cOmplete™, mini, EDTA-free Protease Inhibitor Cocktail tablet (Roche)). The resuspended material was transferred to a 50 mL falcon tube and kept at −80° C. for at least 15 mins. Falcon tubes were then thawed at room temperature, as the tubes were thawing the following reagents were added; 2.6 mM MgCl2, 1 mM CaCl2, 250 μL of a 1.4 mg/ml DNase solution (Sigma) dissolved in MilliQ water. Tubes were gently inverted to mix then were incubated for 5 mins at 37° C. Binding buffer was then added to the tubes (50 mM Tris-HCl pH7.4, 10 mM imidazole, 500 mM NaCl. 11.25 mL MilliQ water) and the pH adjusted to 7.4 with HCl. The mix was centrifuged at 15550×g for 15 mins at 4° C., the supernatant transferred to a fresh 50 mL falcon tubes and centrifuged again to remove any remaining cellular debris at 48400×g for 20 minutes at 4° C. While the enzyme prep was centrifuging, 3 mL of HIS-Select (available from Sigma P6611) column material was added to a fresh 50 mL tube and washed by adding MilliQ water up to 50 mL, centrifuging at 2000×g for 2 mins and discarding the supernatant. This washing step was repeated. Finally, MilliQ water was added to the HIS-Select material to an approximate 50% volume. Collected supernatant from the centrifuged enzyme preparation was transferred to the tube containing the HIS-Select material through a Miracloth (available from Merck Millipore), and then incubated at 4° C. with gently shaking by inversion for 2 h. After 2 h the mix was centrifuged at 2000×g for 4 minutes at 4° C. and the supernatant discarded. The remaining HIS-Select material was washed twice with 1× binding buffer (50 mM Tris-HCl, 0.5M NaCl, 10 mM Imidazole, pH 7.4) with centrifugation at 2000×g for 4 minutes at 4° C. The HIS-Select material was resuspended in 5 mL 1× binding buffer and transferred to a Poly-Prep®Chromatography Column (available from BioRad, 7311550). The HIS-Select material was kept at 4° C. and washed twice with 1× binding buffer by filling up the column and allowing it to drip through. Finally, purified Glycosyl transferases were eluted from the HIS-Select material by adding 7.5 mL of elution buffer (50 mM Tris-HCl, 500 mM Imidazole, pH7.4) and collecting the flow through. Enzymes were used immediately in in vitro enzyme assays or stored at −20° C. in 50% glycerol until needed.
In vitro conversion of various cannabinoids to cannabinoid glycosides was carried out according to table 21. Alkaline phosphatase was provided by New England Biolabs (M0371S). Cannabinoids were dissolved in methanol. The UDP-sugar (e.g. UDP-glucose) was provided by a commercial supplier (e.g. Sigma) or produced by in vitro enzymatic conversion from a commercially available UDP-sugar as shown in Example 21.
The reaction mixture was scaled up or down as required. The reaction mixture was incubated without shaking at 30° C. for 24 hours. Extraction and analysis were performed as described above for this example. […]

[1] abbreviates: UDP-Glucose, enzyme PL-214(Cs73Y_GA).
Setting [2] is: UDP-Xylose, enzyme PL-214(Cs73Y_GA).

For `C=C(C)[C@@H]1CCC(C)=C[C@H]1c1c(O)cc(CCC)cc1O[C@@H]1O[C@H](CO)[C@@H](O)[C@H](O)[C@H]1O` [OB24, CBDV-1′-O-β-D-glucoside], where the note is “UDP-Glucose, enzyme PL-326(Ha72B_GA)”, the “Conversion % (CBDV to the glycoside)” value worked out at 92.6%. Consider CBN-1′-O-β-D-di-glucoside [OB23], for which, for the setting “substrate CBN, sugar donor UDP-Glucose, enzyme PL-342(Cp73B_GA)”, the “Conversion % (CBN-glycoside produced)” value is given as 100%. For CBD-1′-O-β-D-tri-glucoside [OB7], the “Conversion % (CBD to the glycoside)” value under setting [1] came out at 27.3%. As to `C=C(C)C1CCC(C)=CC1c1c(O)cc(CCCCC)cc1O[C@@H]1OC[C@@H](O)[C@H](O)[C@H]1O` (stereo partly drawn) [OB9, CBD-1′-O-β-D-xyloside], the “Conversion % (CBD to the glycoside)” value (UDP-Xylose, enzyme PL-159(Pt88G_GA)) stood at 12.4%. On to `C=C(C)C1CCC(C)=CC1c1c(OC2OC(CO)C(O)C(O)C2O)cc(CCCCC)c(C(=O)O)c1O` [OB31, CBDA-1′-O-β-D-glucoside], for which the “Conversion % (CBDA to the glycoside)” value (acceptor CBDA, UDP-Glucose, enzyme PL-214(Cs73Y_GA)) is on record as 92%. Regarding `CCCCCc1cc(O)c(C/C=C(\C)CCC=C(C)C)c(O[C@@H]2OC[C@@H](O)[C@H](O)[C@H]2O)c1` [OB36], the “Conversion % (CBG to the glycoside)” value under setting [2] was found to be 1.0%.

As for `C=C(C)C1CCC(C)=CC1c1c(O)cc(CCCCC)cc1OC1OC(COC2OC(CO)C(O)C(O)C2O)C(O)C(O)C1O` (stereo not shown) [OB3], the “Conversion % (CBD to the glycoside)” value (UDP-Glucose, enzymes PL-159(Pt88G_GA) + PL-152(Si94D_GA)) was determined as 96.4%. For `CCCCCc1cc(O[C@@H]2O[C@H](CO)[C@@H](O)[C@H](O)[C@H]2O)c(C/C=C(\C)CCC=C(C)C)c(O[C@@H]2O[C@H](CO)[C@@H](O)[C@H](O)[C@H]2O)c1` [OB33, CBG-1′-O-β-D-glucosyl-3′-O-β-D-glucoside], the “Conversion % (CBG to the glycoside)” value (UDP-Glucose, enzyme PL-5(At73C5_GA)) was 4.5%. On to `C=C(C)C1CCC(C)=CC1c1c(O)cc(CCC)cc1OC1OCC(O)C(O)C1O` (stereo not shown) [OB29], for which, under setting [2], the “Conversion % (CBDV to the glycoside)” value was found to be 12.1%. With `C=C(C)[C@@H]1CCC(C)=C[C@H]1c1c(O[C@@H]2O[C@H](CO)[C@@H](O)[C@H](O)[C@H]2O)cc(CCC)cc1O[C@@H]1O[C@H](CO)[C@@H](O)[C@H](O)[C@H]1O` [OB25, CBDV-1′-O-β-O-glucosyl-3′-O-β-D-glucoside], the “Conversion % (CBDV to the glycoside)” value (UDP-Glucose, enzyme PL-342(Cp73B_GA)) turned out to be 4.5%. Turning to `CCCCCc1cc(OC2OCC(O)C(O)C2O)c2c(c1)OC(C)(C)C1CCC(C)=CC21` (stereo not shown) [OB21], the “Conversion % (THC-glycoside produced)” value (sugar donor UDP-Xylose, enzyme PL-214(Cs73Y_GA)) was determined as 19.5%. Take “CBD-1′-O-β-D-glucosyl-3′-O-β-D-di-glucoside [OB8]”: the “Conversion % (CBD to the glycoside)” value under setting [1] was 12.3%. Regarding CBG-1′-O-β-D-tetra-xyloside [OB40], the “Conversion % (CBG to the glycoside)” value under setting [2] worked out at 1.2%. For the molecule “11-nor-9-carboxy-THC-1′-O-β-D-di-glucoside [OB42]”, under “sugar donor UDP-Glucose”, the “Conversion % (11-nor-9-carboxy-THC-glycoside produced)” value came out at 3.4%.

For the molecule `CCCCCc1cc(O[C@@H]2O[C@H](CO)[C@@H](O)[C@H](O)[C@H]2O)c2c(c1)OC(C)(C)[C@@H]1CCC(C(=O)O)=C[C@@H]21` [OB41, 11-nor-9-carboxy-THC-1′-O-β-D-glucoside], the “Conversion % (11-nor-9-carboxy-THC-glycoside produced)” value (sugar donor UDP-Glucose) was determined as 70.2%.

On to `C=C(C)C1CCC(C)=CC1c1c(O)cc(CCCCC)cc1O[C@@H]1O[C@H](CO)[C@@H](O)[C@H](O[C@@H]2O[C@H](CO)[C@@H](O)[C@H](O)[C@H]2O)[C@H]1O` (stereo partly drawn) [OB2, CBD-1′-O-β-D-laminaribioside], for which the “Conversion % (CBD to the glycoside)” value (UDP-Glucose, enzymes PL-159(Pt88G_GA) + PL-55(Sr76G1_GA)) is 80.7%. On to `CCCCCc1cc(O[C@@H]2O[C@H](CO)[C@@H](O)[C@H](O)[C@H]2O)c2c(c1)OC(C)(C)[C@@H]1CCC(C)=C[C@@H]21` [OB20, THC-1′-O-β-D-glucoside], for which, where the note is “sugar donor UDP-Glucose, enzyme PL-182(Ha88B_2_GA)”, the “Conversion % (THC-glycoside produced)” value came out at 74.9%.

`C=C(C)C1CCC(C)=CC1c1c(O)cc(CCCCC)cc1OC1OC(C(=O)O)C(O)C(O)C1O` (stereo not shown) [OB14]: the “Conversion % (CBD to the glycoside)” value (UDP-Glucuronic Acid, enzyme PL-214(Cs73Y_GA)) turned out to be 2.0%. In the case of `CCCCCc1cc(O)c(C/C=C(\C)CCC=C(C)C)c(O[C@@H]2O[C@H](CO)[C@@H](O)[C@H](O)[C@H]2O)c1` [OB32, CBG-1′-O-β-D-glucoside], the “Conversion % (CBG to the glycoside)” value (UDP-Glucose, enzyme PL-340(Qs72S_1_GA)) is 98.9%. As to `C=C(C)C1CCC(C)=CC1c1c(O)cc(CCCCC)cc1OC1OC(CO)C(O)C(O)C1O` (stereo not shown) [OB16], the “Conversion % (CBD to the glycoside)” value (UDP-Galactose, enzyme PL-214(Cs73Y_GA)) is 62%.

B1: Pt78G: glycosyl transferase, SEQ ID NO: 165, 166 (protein)
chain: MSEARNDLKHIAVLAFPVATHGPPLLSLVRRLSASASYAKFSFFSTKESNSKLFSKEDGLENIKPYNVSDGLPENYNFAGNLDEVMNYFFKATPGNFKQAMEVAVKEVGKDFTCIMSDAFLWFAADFAQELHVPWVPLWTSSSRSLLLVLETDLVHQKMRSIINEPEDRTIDILPGFSELRGSDIPKELFHDVKESQFAAMLCKIGLALPQAAVVASNSFEELDPDAVILFKSRLPKFLNIGPFVLTSPDPFMSDPHGCLEWLDKQKQESVVYISFGSVISLPPQELAELVEALKECKLPFLWSFRGNPKEELPEEFLERTKEKGKVVSWTPQLKVLRHKAIGVFVTHSGWNSVLDSIAGCVPMICRPFFGDQTVNTRTIEAVWGTGLEIEGGRITKGGLMKALRLIMSTDEGNKMRKKLQHLQGLALDAVQSSGSSTKNFETLLEVVAK
As for B1, the “conversion of cannabinoid aglycone to cannabinoid glycoside in 24 h” value (CBG to CBG-1′-O-β-D-glucosyl-3′-O-β-D-glucoside (OB33)) was 100%.

B2: Cp7.38: glycosyl transferase, SEQ ID NO: 191, 192 (protein)
chain: MGSEVLHHDYSQLNIFFFPFMAHGHMIPTLDMAKLFATHGAKTSIITTPLNLPFFSKSIERFSKQTGLEIGVKLLNFPSVEVGLPSGCENADSLPAGEPLIVNKFFAAAGMLKDPLERLLQEFKPDCLIADMFFPWTTDAAAKFDIPRLVFHGTSFFALSASECIRLYTPFNNVSSDSEPFLVPTLPDEIRLTRNQLADFAMKEGDENGIHRLIKEAKESELKSYGVVVNSFYELEPAYADHYRNFLKRKAWHIGPVSLCNKTVEDKAERGKRASIDEDECLKWLNSKAPNSVIYICFGSMANFNSAQLMEIATALDASGQEFIWVVRREKNENNQEDWLPEGFEQRTEGKGLIIRGWAPQVLILEHEAVGGFVTHCGWNSTLEGVTAGMPMVTWPVSAEQFYNEKLVTEVLKIGLSVGVKKWVRSEGDFVSREKVEQAVREIMVGSEAVERRMRAKAMADMARAAVEKGGSSYNDLNALLREVSLMRRQQSQNQ
Consider B2, for which, where the note is “CBN to CBN-1′-O-β-D-di-glucoside (OB23)”, the “conversion of cannabinoid aglycone to cannabinoid glycoside in 24 h” value stood at 100%.

(Values after patent US20220290200A1, “GENETICALLY MODIFIED HOST CELLS PRODUCING GLYCOSYLATED CANNABINOIDS” (OCTARINE BIO IVS, priority 2019, published 2022).)
